Source: patent US8883790B2, “Pharmaceutical combinations” (Astex Therapeutics Limited, priority 2006, dated 2014)
pIC50, pKd: −log10 of the molar value. Structures can show the parent of a compound that is named as a salt.

How the values were obtained:
[1] = Solid-state and dissolution properties of the L-lactate salt of the compound of formula (1) and its crystalline forms; format: physicochemical; conditions: for stability of crystalline form: crystalline forms of the L-lactate salt of the compound of formula (1)
Description: The lactic acid salts of the compound of formula (1) exist in one unstable form (FL3) and two stable forms (FL1 and FL2).

[2] = tested on: Acute Promyelocytic Leukemia (APL); conditions: APL patients; cited from earlier work
[3] = antitumour agent; cited from earlier work
[4] = format: physicochemical
Description: Samples for X-ray powder diffraction (XRPD) data collection were gently ground by marble mortar and loaded into a crystallographic capillary (from Hampton Research, Quartz or Glass Type 10, 0.4 or 0.7 mm diameter). Diffraction patterns were collected at room temperature using CuKa radiation (λ=1.5418 Å) from a Rigaku rotating anode RU3HR, Osmic blue confocal optics, ¼ c goniometer and a Rigaku HTC image plate detector. 2D Images were collected while spinning φ axis with a detector to crystal distance of 250 mm. Data collection was controlled by CrystalClear software and 2D images were converted to 1D plot (20 vs. Intensity) by Datasqueeze (intensity averaged over the azimuthal angle 0<χ<360° for 2θ range 3-30° in 0.02° steps). In house program AstexXRPD was used for manipulation and visualisation of 1D XRPD patterns.
It is nominally a tri-hydrate because there are 3 crystal water positions in the asymmetric unit, but they are not 100% occupied at room temperature and laboratory humidity. A saturated solution of form FL1 in methanol:water 9:1 was prepared at room temperature. Slow precipitation with approximately 4 volumes of acetone gave form FL2 which is stable in air.
A saturated solution of form FL1 in THF was prepared at room temperature. Slow precipitation with approximately 4 volumes of heptane gave form FL3.

[5] = molecular target: T1, Human Hsp90a N-terminal domain (Homo sapiens, UniProt P07900); assay: Isothermal titration calorimetry (ITC) binding to human Hsp90; conditions: pH 7.4
T1 construct: purification of the Human Hsp90a N-terminal domain; made in house
Procedure: The ability of the compounds for use in the combinations of the invention to bind to human Hsp90 proteins was determined using isothermal titration calorimetry.
Isothermal titration calorimetry (ITC) experiments were performed with a VP-ITC titration calorimeter (Microcal Inc., Northampton, Mass., USA). […] All solutions were filtered and degassed prior to a titration being carried out. The enthalpy change resulting from each injection of ligand was obtained through integration of the calorimetric signal. Data were analysed using Origin 7.0 (Microcal Software Inc., Northampton, Mass.). Heats of dilution were estimated using the final injections of each individual titration and subtracted before data fitting. Different ITC experimental formats were employed in order to obtain compound dissociation constants (Kd's) over a wide range of affinities. […] In this type of experiment the stoichiometry parameter (N) was locked at 1 for data fitting.

[6] = mice; doses 10 times more than were needed for antitumour activity; cited from earlier work
[7] = Solubility of acid addition salts in a liquid carrier (e.g. water); conditions: salts of 1-(2,6-difluorophenyl)-N-[3-(5-morpholin-4-ylmethyl-1H-benzimidazol-2-yl)-1H-pyrazol-4-yl]-urea
[8] = tested on: P-glycoprotein-overexpressing subline of CCRF-CEM; conditions: cited from earlier work
[9] = clinical studies; cited from earlier work
PKC = conditions: cited from earlier work
PKG = conditions: cited from earlier work
OVCAR-3 tumour cells = OVCAR-3 tumour cells in which PKB is amplified; concentrations of 50 and 100 microM; cited from earlier work
HCT116 cell line = assay: Anti-proliferative activity, Alamar Blue assay; format: cell-based; conditions: Homo sapiens, HCT-116, 72 h
Procedure: The anti-proliferative activities of compounds for use in the combinations of the invention can be determined by measuring the ability of the compounds to inhibition of cell growth in a number of cell lines such as the human colon cancer cell line HCT116. […] The method is based on the ability of viable cells to reduce resazurin to its fluorescent product resorufin. […] The number of viable cells is determined by Alamar Blue assay as before. Cell lines can be obtained from the ECACC (European Collection of cell Cultures).

tubulin = conditions: relative to epothilone A or paclitaxel; cited from earlier work
[10] = Physicochemical properties of the crystalline lactate salt of compound (AA)
[11] = lactate (particularly L-lactate) salt of compound (AA)

In the case of `CC(C)c1cc(C(=O)N2Cc3ccc(CN4CCN(C)CC4)cc3C2)c(O)cc1O` [(2,4-dihydroxy-5-isopropyl-phenyl)-[5-(4-methyl-piperazin-1-ylmethyl)-1,3-dihydro-isoindol-2-yl]-methanone], the hygroscopicity ([1]; L-lactate of (2,4-dihydroxy-5-isopropyl-phenyl)-[5-(4-methyl-piperazin-1-ylmethyl)-1,3-dihydro-isoindol-2-yl]-methanone) was “non-hygroscopic” and the rate of solubility ([1]; compared with free base and hydrochloric and sulphuric acid salts) was “better rate of solubility than the free base and other salts tested”.
For `CC1=C(/C=C/C(C)=C/C=C/C(C)=C/C(=O)O)C(C)(C)CCC1` [Tretinoin, all-trans retinoic acid], the remissions induced [2] is given as 64-100%.
For `CCN[C@H]1CO[C@@H](O[C@H]2[C@H](O[C@H]3C#C/C=C\C#C[C@]4(O)CC(=O)C(NC(=O)OC)=C3/C4=C\CSSSC)O[C@H](C)[C@@H](NO[C@H]3C[C@H](O)[C@H](SC(=O)c4c(C)c(I)c(O[C@@H]5O[C@@H](C)[C@H](O)[C@@H](OC)[C@H]5O)c(OC)c4OC)[C@@H](C)O3)[C@@H]2O)C[C@@H]1OC` [Calicheamicin], the “potency relative to adriamycin” value [3] is listed as “over 1,000 times”.
With `CC(C)c1cc(C(=O)N2Cc3ccc(CN4CCN(C)CC4)cc3C2)c(O)cc1O` [FL2, (2,4-dihydroxy-5-isopropyl-phenyl)-[5-(4-methyl-piperazin-1-ylmethyl)-1,3-dihydro-isoindol-2-yl]-methanone L-lactate] the “Stability of crystal form” value [4] was “stable in air” and the “stability of crystalline form” value [1] was “stable hydrate”.
With `CC(C)c1cc(C(=O)N2Cc3ccc(CN4CCN(C)CC4)cc3C2)c(O)cc1O` [FL3, (2,4-dihydroxy-5-isopropyl-phenyl)-[5-(4-methyl-piperazin-1-ylmethyl)-1,3-dihydro-isoindol-2-yl-]-methanone L-lactate] the “Stability of crystal form” value [4] was “transforms in air into form FL1”, the “Crystal form by XRPD after drying in air” value ([4]; sample dried in air for 2 days) was “conversion to form FL1 had occurred” and the “stability of crystalline form” value [1] was “unstable”.
In the case of `CC(C)c1cc(C(=O)N2Cc3ccc(CN4CCN(C)CC4)cc3C2)c(O)cc1O` [Example 55, (2,4-dihydroxy-5-isopropyl-phenyl)-[5-(4-methyl-piperazin-1-ylmethyl)-1,3-dihydro-isoindol-2-yl]-methanone], the pKd [5] was > 7.00.
In the case of `CCOC(=O)c1ccc2[nH]c3c(OC)c4[nH]c5ccc(C(=O)OCC)cc5c4cc3c2c1` [SR-13668], the adverse effects [6] is given as “no adverse effects”.
For “1-(2,6-difluorophenyl)-N-[3-(5-morpholin-4-ylmethyl-1H-benzimidazol-2-yl)-1H-pyrazol-4-yl]-urea [D-glucuronate]”, the solubility [7] was “greater than 25 mg/ml”.
In the case of `C/C1=C/C[C@@H](/C(C)=C/c2csc(C)n2)OC(=O)C[C@H](O)C(C)(C)C(=O)[C@H](C)[C@@H](O)[C@@H](C)CCC1` [desoxyepothilone B], the pIC50 [8] is given as 7.77.
For `CC(C)c1cc(C(=O)N2Cc3ccc(CN4CCN(C)CC4)cc3C2)c(O)cc1O` [FL1, (2,4-dihydroxy-5-isopropyl-phenyl)-[5-(4-methyl-piperazin-1-ylmethyl)-1,3-dihydro-isoindol-2-yl]-methanone L-lactate], the “Stability of crystal form” value [4] was “stable in air and at 40 °C and 75% RH for at least one month” and the “stability of crystalline form” value [1] was “stable”.
In the case of `CCCCCCCCCCCCCCCCCCOP(=O)([O-])OC1CC[N+](C)(C)CC1` [KRX-0401, Perifosine], the half-life [9] is listed as ~100 h.
For `O=S(=O)(NCCNCC=C(c1ccccc1)c1ccccc1)c1cccc2cnccc12` [NL-71-101], the pIC50 (PKC) is listed as 3.98, the pIC50 (PKG) is listed as 4.44 and the apoptosis induction (OVCAR-3 tumour cells) is listed as “induced apoptosis”.
With `CC(C)c1cc(C(=O)N2Cc3ccccc3C2)c(O)cc1O` [Example 5, (1,3-Dihydro-isoindol-2-yl)-(2,4-dihydroxy-5-isopropyl-phenyl)-methanone] the pIC50 (HCT116 cell line) was > 6.00.
In the case of `C/C(=C\c1csc(C)n1)[C@@H]1C[C@@H]2O[C@]2(C)CCC[C@H](C)[C@H](O)[C@@H](C)C(=O)C(C)(C)[C@@H](O)CC(=O)O1` [epothilone B], the “potency in inducing tubulin polymerization in vitro” value (tubulin) is given as “approximately twice as potent as epothilone A or paclitaxel”.
For `CC(C)c1cc(C(=O)N2Cc3ccc(CN4CCN(C)CC4)cc3C2)c(O)cc1O` [crystalline lactate salt, (2,4-dihydroxy-5-isopropyl-phenyl)-[5-(4-methyl-piperazin-1-ylmethyl)-1,3-dihydro-isoindol-2-yl]-methanone], the hygroscopicity ([10]; lactate (particularly L-lactate) salt of 1-cyclopropyl-3-[3-(5-morpholin-4-ylmethyl-1H-benzoimidazol-2-yl)-1H-pyrazol-4-yl]-urea (compound (AA))) was “non-hygroscopic”, the solubility in water [10, 11] was “good solubility in water” and the storage stability [10, 11] was “stable to storage”.
In the case of `CC(C)c1cc(C(=O)N2Cc3ccc(CN4CCN(C)CC4)cc3C2)c(O)cc1O` [lactate salt, (2,4-dihydroxy-5-isopropyl-phenyl)-[5-(4-methyl-piperazin-1-ylmethyl)-1,3-dihydro-isoindol-2-yl]-methanone], the “solid-state stability in conditions of high relative humidity” value ([10]; lactate salt of compound (AA), gravimetric vapour sorption) was “stable anhydrous crystalline form”.
For `CC(C)c1cc(C(=O)N2Cc3ccc(C(=O)N4CCNCC4)cc3C2)c(O)cc1O` [Example 54, (2,4-dihydroxy-5-isopropyl-phenyl)-[5-(piperazine-1-carbonyl)-1,3-dihydro-isoindol-2-yl]-methanone hydrochloride], the pIC50 (HCT116 cell line) was > 6.00.
